Source: patent US7906554B2, “Combination chemotherapy compositions and methods” (Novogen Research Pty Ltd, priority 2002, dated 2011)
Read-outs that look alike come from different tables or passages of the source.

Tests used:
[1] = tested on: A2780; assay: Cell viability (CellTiter), concurrent dehydroequol and cisplatin; assay type: cell-based
Procedure: (§1) The effect of a composition comprising the platinum complex cisplatin and the isoflavonoid compound dehydroequol (compound No. 12) on various cancer cell lines was assessed on culture plates. Cell viability was determined using CellTiter©. Apoptosis was evaluated using Hoechst 33342 dye.

[2] = tested on: CP70; assay: as above; assay type: cell-based
Procedure: as §1

[3] = tested on: DU145; assay: as above; assay type: cell-based
Procedure: as §1

[4] = tested on: HPAC; assay: as above; assay type: cell-based
Procedure: as §1

[5] = tested on: PC3; assay: as above; assay type: cell-based
Procedure: as §1

[6] = tested on: CP70; assay: In vivo CP70 tumour injected subcutaneously into nude mice; settings: cisplatin 0.5 mg/kg alone
Procedure: (§2) The in vitro studies were performed using ovarian cancer cells isolated from ascites using an immunomagnetic assay and established ovarian cancer cell lines CP70 and A2780. Cell viability was determined using CellTiter©. Apoptosis was evaluated using Hoechst 33342 dye. The in vivo effect was tested by injecting CP70 subcutaneously into nude mice. Animals received daily oral administration of dehydroequol, 10 or 20 mg/kg for 8 days alone or in combination with cisplatin 0.5 mg/kg. After 8 days the animals were sacrificed and the tumour volume was measured.

[7] = tested on: ovarian cancer cells isolated from ascites and ovarian cancer cell lines CP70 and A2780; assay: Cell viability (CellTiter) of ovarian cancer cells with or without dehydroequol pre-treatment; assay type: cell-based
Procedure: as §2

[8] = tested on: carboplatin and paclitaxel resistant cells; assay: Decrease in cell viability in chemoresistant cells; assay type: cell-based
Procedure: as §2

[9] = tested on: caspase 3; assay: Western blot analysis of resistant ovarian cancer cells; assay type: cell-based; settings: chemoresistant cells, only after pre-treatment with dehydroequol (FIG. 5)
From the text: FIG. 5 represents a Western Blot analysis of carboplatin or paclitaxel treatment resistant ovarian cancer CP70 cells with and without dehydroequol pre-treatment.
Additionally, the active form of caspase 3 in chemoresistant cells was not detected.

[10] = tested on: paclitaxel resistant cell line, R182; assay: Cell viability (CellTiter), paclitaxel resistant cell line; assay type: cell-based; settings: R182, no pre-treatment (FIG. 2)
Procedure: as §2

For N.N.[Cl][Pt][Cl] [Cisplatin, cis-diamminedichloroplatinum (II)], the IC50 ([1]; A2780, co-incubation with 2 uM dehydroequol, read-out: Cisplatin IC50 +2 uM dehydroequol) was < 0.001 µM, the IC50 ([1]; A2780, single agent, read-out: IC50) was 3 µM and the IC50 ([2]; CP70, co-incubation with 2 uM dehydroequol, read-out: Cisplatin IC50 +2 uM dehydroequol) was 0.1 µM. It also gave an IC50 ([2]; CP70, single agent, read-out: IC50) of 10.4 µM, an IC50 ([3]; DU145, co-incubation with 2 uM dehydroequol, read-out: Cisplatin IC50 +2 uM dehydroequol) of 0.1 µM and an IC50 ([3]; DU145, single agent, read-out: IC50) of 5 µM. For the same compound, the IC50 ([4]; co-incubation with 2 uM dehydroequol, read-out: Cisplatin IC50 +2 uM dehydroequol) was 7.7 µM, the IC50 ([4]; single agent, read-out: IC50) was 34.5 µM and the IC50 ([5]; PC3, co-incubation with 2 uM dehydroequol, read-out: Cisplatin IC50 +2 uM dehydroequol) was < 0.001 µM. For the same compound, the IC50 ([5]; PC3, single agent, read-out: IC50) was 0.4 µM and the “effect on tumour size” value [6] was “no effect”.

N.N.O=C([O-])C1(C(=O)[O-])CCC1.[Pt+2] [carboplatin] was tested, and the “IC50 for carboplatin after dehydroequol pre-treatment” value ([7]; pre-treatment with dehydroequol (10 μg/ml) for two hours, +/−0.5 (FIG. 3)) was 0.5 µg/mL and the “decrease in cell viability” value ([8]; pre-treatment (2 h) with DHE followed by the agent for 48 h) was 30%.

Work on Oc1ccc(C2=Cc3ccc(O)cc3OC2)cc1 [dehydroequol] yielded an IC50 ([1]; Homo sapiens, A2780) of 1.7 µM, an IC50 [2] of 1.5 µM and an IC50 ([3]; Homo sapiens, DU-145) of 5.9 µM. The IC50 ([4]; Homo sapiens) was 50 µM, the IC50 ([5]; Homo sapiens, PC-3) was 9.6 µM and the “decrease in cell viability” value ([8]; pre-treatment alone for 2 h) was 20%. The “decrease in cell viability” value ([8]; treatment for 48 hours) was 60-80% and the “Caspase 3 activation” value [9] was “Caspase 3 activation was observed”.

For CC(=O)O[C@H]1C(=O)[C@@]2(C)[C@H]([C@H](OC(=O)c3ccccc3)[C@]3(O)C[C@H](OC(=O)[C@H](O)[C@@H](NC(=O)c4ccccc4)c4ccccc4)C(C)=C1C3(C)C)[C@]1(OC(C)=O)CO[C@@H]1C[C@@H]2O [paclitaxel], the IC50 ([7]; Homo sapiens, A2780, pre-treatment with dehydroequol (10 μg/ml) for two hours (FIG. 4), read-out: IC50 for paclitaxel after dehydroequol pre-treatment) was 0.05 µM and the IC50 [10] was > 2 µM.
